Reference: ChEMBL document CHEMBL1156111, “Identification of the amino acid-AZT-phosphoramidase by affinity T7 phage display selection” (Bioorg Med Chem Lett, 2009)

Target: Adenosine 5'-monophosphoramidase HINT1 (Homo sapiens) (UniProt P49773)
Experiment: Ratio of kcat to km for human HINT1

Adenosine 5'-monophosphoramidase HINT1 (Homo sapiens), sequence (P49773 whole entry): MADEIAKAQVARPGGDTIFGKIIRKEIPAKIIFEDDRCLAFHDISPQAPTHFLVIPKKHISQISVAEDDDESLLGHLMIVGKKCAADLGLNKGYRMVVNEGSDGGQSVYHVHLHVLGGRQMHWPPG

## Cc1cn([C@H]2C[C@H](N=[N+]=[N-])[C@@H](COP(=O)(O)NCc3c[nH]c4ccccc34)O2)c(=O)[nH]c1=O
  Ratio: 25
